Measured values from article PMC2822479 (American Journal of Physiology - Endocrinology and …, 2009).
Where a SMILES comes first, the peptide text is derived from it.

Target: human KISS1R (Homo sapiens, UniProt Q969F8)
Assay: Receptor binding assay, competition against [125I]KP-54 in CHO-KISS1R membranes
Conditions: SEM

human KISS1R, sequence (Q969F8 whole entry): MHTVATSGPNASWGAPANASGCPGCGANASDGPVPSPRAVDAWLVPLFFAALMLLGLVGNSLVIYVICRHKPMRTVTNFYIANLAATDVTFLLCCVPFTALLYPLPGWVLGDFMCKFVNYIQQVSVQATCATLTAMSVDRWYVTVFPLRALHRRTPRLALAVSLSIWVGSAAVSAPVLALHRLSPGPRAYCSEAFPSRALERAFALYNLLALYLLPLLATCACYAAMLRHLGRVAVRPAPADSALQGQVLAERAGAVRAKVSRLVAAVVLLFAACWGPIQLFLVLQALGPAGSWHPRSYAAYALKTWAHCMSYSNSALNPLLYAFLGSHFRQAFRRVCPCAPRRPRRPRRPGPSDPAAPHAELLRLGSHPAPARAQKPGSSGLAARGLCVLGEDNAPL

IC50	Compound
378 nM	CC(C)C[C@H](NC(=O)CNC(=O)[C@H](Cc1ccccc1)NC(=O)[C@H](CO)NC(=O)[C@H](CC(N)=O)NC(=O)[C@H](Cc1c[nH]c2ccccc12)NC(=O)[C@H](CC(N)=O)NC(=O)[C@@H](N)Cc1ccc(O)cc1)C(=O)N[C@@H](CCCNC(=N)N)C(=O)N[C@@H](Cc1c[nH]cn1)C(N)=O [ANA18] (H-YNWNSFGLRH-NH2)
1 nM	CC(C)C[C@H](NC(=O)CNC(=O)[C@H](Cc1ccccc1)NC(=O)[C@H](CO)NC(=O)[C@H](CC(N)=O)NC(=O)[C@H](Cc1c[nH]c2ccccc12)NC(=O)[C@H](CC(N)=O)NC(=O)[C@@H](N)Cc1ccc(O)cc1)C(=O)N[C@@H](CCCNC(=N)N)C(=O)N[C@@H](Cc1ccccc1)C(N)=O [KP-10, kisspeptin-10, reference compound]
87.5 nM	CC(C)C[C@H](NC(=O)CNC(=O)[C@H](Cc1ccc(O)cc1)NC(=O)[C@H](CO)NC(=O)[C@H](CC(N)=O)NC(=O)[C@H](Cc1c[nH]c2ccccc12)NC(=O)[C@H](CC(N)=O)NC(=O)[C@@H](N)Cc1ccc(O)cc1)C(=O)N[C@@H](CCCNC(=N)N)C(=O)N[C@@H](Cc1ccccc1)C(N)=O [ANA15] (H-YNWNSYGLRF-NH2)
447 nM	CC(C)C[C@H](NC(=O)CNC(=O)[C@H](Cc1ccccc1)NC(=O)[C@H](CO)NC(=O)[C@H](CC(N)=O)NC(=O)[C@H](Cc1c[nH]c2ccccc12)NC(=O)[C@H](CC(N)=O)NC(=O)[C@@H](N)Cc1ccc(O)cc1)C(=O)N[C@@H](CCCNC(=N)N)C(=O)N[C@H](Cc1ccccc1)C(N)=O [ANA21]
3.6 nM	CC(C)C[C@H](NC(=O)CNC(=O)[C@H](Cc1ccccc1)NC(=O)[C@H](CO)NC(=O)[C@H](CC(N)=O)NC(=O)[C@H](Cc1c[nH]c2ccccc12)NC(=O)[C@H](CC(N)=O)NC(=O)[C@H](N)Cc1ccc(O)cc1)C(=O)N[C@@H](CCCNC(=N)N)C(=O)N[C@@H](Cc1ccccc1)C(N)=O [ANA19]
253 nM	CC(C)C[C@H](NC(=O)CNC(=O)[C@@H](Cc1ccccc1)NC(=O)[C@H](CO)NC(=O)[C@H](CC(N)=O)NC(=O)[C@H](Cc1c[nH]c2ccccc12)NC(=O)[C@H](CC(N)=O)NC(=O)[C@@H](N)Cc1ccc(O)cc1)C(=O)N[C@@H](CCCNC(=N)N)C(=O)N[C@@H](Cc1ccccc1)C(N)=O [ANA20]
39.9 nM	CC[C@H](C)[C@H](NC(=O)CNC(=O)[C@H](Cc1ccccc1)NC(=O)[C@H](CO)NC(=O)[C@H](CC(N)=O)NC(=O)[C@H](Cc1c[nH]c2ccccc12)NC(=O)[C@H](CC(N)=O)NC(=O)[C@@H](N)Cc1ccc(O)cc1)C(=O)N[C@@H](CCCNC(=N)N)C(=O)N[C@@H](Cc1ccccc1)C(N)=O [ANA16] (H-YNWNSFGIRF-NH2)

Continued, compound first:

Compound	IC50
CC(C)C[C@H](NC(=O)CNC(=O)[C@H](Cc1ccccc1)NC(=O)[C@H](CO)NC(=O)[C@H](CC(N)=O)NC(=O)[C@H](Cc1c[nH]c2ccccc12)NC(=O)[C@H](CC(=O)O)NC(=O)[C@@H](N)Cc1ccc(O)cc1)C(=O)N[C@@H](CCCNC(=N)N)C(=O)N[C@@H](Cc1ccccc1)C(N)=O [ANA12] (H-YDWNSFGLRF-NH2)	29.1 nM
C[C@H](NC(=O)CNC(=O)[C@H](Cc1ccccc1)NC(=O)[C@H](CO)NC(=O)[C@H](CC(N)=O)NC(=O)[C@H](Cc1c[nH]c2ccccc12)NC(=O)[C@H](CC(N)=O)NC(=O)[C@@H](N)Cc1ccc(O)cc1)C(=O)N[C@@H](CCCNC(=N)N)C(=O)N[C@@H](Cc1ccccc1)C(N)=O [ANA8] (H-YNWNSFGARF-NH2)	77.4 nM
CC(C)C[C@H](NC(=O)CNC(=O)[C@H](Cc1ccccc1)NC(=O)[C@H](CO)NC(=O)[C@H](CC(=O)O)NC(=O)[C@H](Cc1c[nH]c2ccccc12)NC(=O)[C@H](CC(N)=O)NC(=O)[C@@H](N)Cc1ccc(O)cc1)C(=O)N[C@@H](CCCNC(=N)N)C(=O)N[C@@H](Cc1ccccc1)C(N)=O [ANA13] (H-YNWDSFGLRF-NH2)	140 nM
CC(C)C[C@H](NC(=O)CNC(=O)[C@H](Cc1ccccc1)NC(=O)[C@H](CO)NC(=O)[C@H](CC(N)=O)NC(=O)[C@H](Cc1c[nH]c2ccccc12)NC(=O)[C@H](CC(N)=O)NC(=O)[C@@H](N)Cc1ccccc1)C(=O)N[C@@H](CCCNC(=N)N)C(=O)N[C@@H](Cc1ccccc1)C(N)=O [ANA11] (H-FNWNSFGLRF-NH2)	3.5 nM
CC(C)C[C@H](NC(=O)CNC(=O)[C@H](Cc1ccccc1)NC(=O)[C@H](CO)NC(=O)[C@H](CC(N)=O)NC(=O)[C@H](Cc1c[nH]c2ccccc12)NC(=O)[C@H](CC(N)=O)NC(=O)[C@@H](N)Cc1ccc(O)cc1)C(=O)N[C@@H](C)C(=O)N[C@@H](Cc1ccccc1)C(N)=O [ANA9] (H-YNWNSFGLAF-NH2)	42.3 nM
CC(C)C[C@H](NC(=O)CNC(=O)[C@H](Cc1ccccc1)NC(=O)[C@H](CO)NC(=O)[C@H](C)NC(=O)[C@H](Cc1c[nH]c2ccccc12)NC(=O)[C@H](CC(N)=O)NC(=O)[C@@H](N)Cc1ccc(O)cc1)C(=O)N[C@@H](CCCNC(=N)N)C(=O)N[C@@H](Cc1ccccc1)C(N)=O [ANA4] (H-YNWASFGLRF-NH2)	43.5 nM
CC(C)C[C@H](NC(=O)CNC(=O)[C@H](Cc1ccccc1)NC(=O)[C@H](CO)NC(=O)[C@H](CC(N)=O)NC(=O)[C@H](Cc1c[nH]c2ccccc12)NC(=O)[C@H](CC(N)=O)NC(=O)[C@H](C)N)C(=O)N[C@@H](CCCNC(=N)N)C(=O)N[C@@H](Cc1ccccc1)C(N)=O [ANA1] (H-ANWNSFGLRF-NH2)	23.2 nM
CC(C)C[C@H](NC(=O)CNC(=O)[C@H](Cc1ccccc1)NC(=O)[C@@H](NC(=O)[C@H](CC(N)=O)NC(=O)[C@H](Cc1c[nH]c2ccccc12)NC(=O)[C@H](CC(N)=O)NC(=O)[C@@H](N)Cc1ccc(O)cc1)[C@@H](C)O)C(=O)N[C@@H](CCCNC(=N)N)C(=O)N[C@@H](Cc1ccccc1)C(N)=O [ANA14] (H-YNWNTFGLRF-NH2)	2.3 nM
CC(C)C[C@H](NC(=O)CNC(=O)[C@H](C)NC(=O)[C@H](CO)NC(=O)[C@H](CC(N)=O)NC(=O)[C@H](Cc1c[nH]c2ccccc12)NC(=O)[C@H](CC(N)=O)NC(=O)[C@@H](N)Cc1ccc(O)cc1)C(=O)N[C@@H](CCCNC(=N)N)C(=O)N[C@@H](Cc1ccccc1)C(N)=O [ANA6] (H-YNWNSAGLRF-NH2)	110 nM
CC(C)C[C@H](NC(=O)CNC(=O)[C@H](Cc1ccccc1)NC(=O)[C@H](CO)NC(=O)[C@H](CC(N)=O)NC(=O)[C@H](Cc1c[nH]c2ccccc12)NC(=O)[C@H](C)NC(=O)[C@@H](N)Cc1ccc(O)cc1)C(=O)N[C@@H](CCCNC(=N)N)C(=O)N[C@@H](Cc1ccccc1)C(N)=O [ANA2] (H-YAWNSFGLRF-NH2)	145 nM
CC(C)C[C@H](NC(=O)CNC(=O)[C@H](Cc1ccccc1)NC(=O)[C@H](CO)NC(=O)[C@H](CC(N)=O)NC(=O)[C@H](Cc1c[nH]c2ccccc12)NC(=O)[C@H](CC(N)=O)NC(=O)[C@@H](N)Cc1ccc(O)cc1)C(=O)N[C@@H](CCCCN)C(=O)N[C@@H](Cc1ccccc1)C(N)=O [ANA17] (H-YNWNSFGLKF-NH2)	9.8 nM
CC(C)C[C@H](NC(=O)CNC(=O)[C@H](Cc1ccccc1)NC(=O)[C@H](CO)NC(=O)[C@H](CC(N)=O)NC(=O)[C@H](C)NC(=O)[C@H](CC(N)=O)NC(=O)[C@@H](N)Cc1ccc(O)cc1)C(=O)N[C@@H](CCCNC(=N)N)C(=O)N[C@@H](Cc1ccccc1)C(N)=O [ANA3] (H-YNANSFGLRF-NH2)	2.7 nM
CC(C)C[C@H](NC(=O)CNC(=O)[C@H](Cc1ccccc1)NC(=O)[C@H](C)NC(=O)[C@H](CC(N)=O)NC(=O)[C@H](Cc1c[nH]c2ccccc12)NC(=O)[C@H](CC(N)=O)NC(=O)[C@@H](N)Cc1ccc(O)cc1)C(=O)N[C@@H](CCCNC(=N)N)C(=O)N[C@@H](Cc1ccccc1)C(N)=O [ANA5] (H-YNWNAFGLRF-NH2)	0.8 nM
CC(C)C[C@H](NC(=O)[C@H](C)NC(=O)[C@H](Cc1ccccc1)NC(=O)[C@H](CO)NC(=O)[C@H](CC(N)=O)NC(=O)[C@H](Cc1c[nH]c2ccccc12)NC(=O)[C@H](CC(N)=O)NC(=O)[C@@H](N)Cc1ccc(O)cc1)C(=O)N[C@@H](CCCNC(=N)N)C(=O)N[C@@H](Cc1ccccc1)C(N)=O [ANA7] (H-YNWNSFALRF-NH2)	4.6 nM
